This is an account of results in patent US11207312B2, “Metallo-beta-lactamase inhibitors and methods of use thereof” (priority 2017, dated 2021).

For orientation: IC50 means the concentration at which inhibition is half-maximal.

The subject of data set [1] is P. aeruginosa MB9799 (efflux-, IMP-1 plasmid). The data set is classed as cell-based, Pseudomonas aeruginosa. The following applies: efflux − (MB9799) strain; imipenem at 2 μg/mL; in the presence of a class A, C, D serine β-lactamase inhibitor closely related to relebactam. The gist of the method: (§1)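 Isogenic P. aeruginosa PAO1 strains (efflux+ and multiple-efflux-pump-disrupted) carrying plasmid IMP-1, with inducible AmpC, tested by broth microdilution. Imipenem and/or ceftazidime fixed, usually at CLSI breakpoint, plus fixed class A/C β-lactamase inhibitor; titrated MBL inhibitor concentration restoring susceptibility recorded and compared between strains as efflux fold difference.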

The test system of data set [2] is Serratia marcescens expressing IMP-1 (CL5741). It counts as cell-based. The following applies: with imipenem 1 μg/ml; 95% inhibition of bacterial growth. The gist of the method:
(§2)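 Read-out is absorbance after 22–24 h at 35 °C, with MITC95 taken as the lowest inhibitor concentration that, alongside imipenem at 1 μg/ml, suppresses 95% of bacterial growth. Inocula came from saline-suspended colonies diluted 1:100 into 1.1× CAMHB.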

Data set [3] relates to Klebsiella pneumoniae expressing VIM-1 (IHMA599644). The data set is classed as cell-based. The conditions noted are these: with imipenem 1 μg/ml; 95% inhibition of bacterial growth. The gist of the method:
as §2

In data set [4] the test system is Escherichia coli expressing NDM-1 (CLB30016). It counts as cell-based. The conditions noted are these: with imipenem 1 μg/ml; 95% inhibition of bacterial growth. In outline:
as §2

The target in the next data set is NDM-1 (Klebsiella pneumoniae, UniProt C7C422). Put plainly: biochemical. The data set is classed as biochemical. The conditions noted are these: CCF2-FA fluorescence assay, 2 hours at 25° C. The gist of the method:
(§3)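 In 100 mM phosphate pH 7 containing Tween-20 and ZnSO4, NDM-1 (1 pM), IMP-1 (2 pM) or VIM-1 (30 pM) hydrolysed 1.25 μM CCF2-FA over 2 hours at 25° C with inhibitor present. Readout was 405/460 nm fluorescence.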

Data set [5] concerns P. aeruginosa MB9798 (efflux+, IMP-1 plasmid). The conditions noted are these: for MB9798 MITC95 P. aeruginosa uM Efflux WT: efflux + (MB9798) strain, imipenem at 2 μg/mL, in the presence of a class A, C, D serine β-lactamase inhibitor closely related to relebactam; for Efflux ratio: fold difference between efflux+ (MB9798) and efflux− (MB9799) strains. In outline: as §1
A further data set addresses VIM-1 (Pseudomonas aeruginosa (strain ATCC 15692 / DSM 22644 / CIP 104116 / JCM 14847 / LMG 12228 / 1C / PRS 101 / PAO1), UniProt A0A0F7KYQ8). Put plainly: biochemical. The conditions noted are these: CCF2-FA fluorescence assay, 2 hours at 25° C.; read-out: VIM1 IC50. The gist of the method: as §3
Another data set has as its target IMP-1 (Serratia marcescens, UniProt P52699). The experiment in a line: biochemical. The conditions noted are these: CCF2-FA fluorescence assay, 2 hours at 25° C.; read-out: IMP1 IC50. In outline: as §3
A further data set addresses VIM-2 (Escherichia coli, UniProt Q5U7L7). Put plainly: biochemical. The following applies: CCF2-FA fluorescence assay; read-out: VIM2 IC50.

Sequence of IMP-1 (P52699 whole entry, looked up, species assumed): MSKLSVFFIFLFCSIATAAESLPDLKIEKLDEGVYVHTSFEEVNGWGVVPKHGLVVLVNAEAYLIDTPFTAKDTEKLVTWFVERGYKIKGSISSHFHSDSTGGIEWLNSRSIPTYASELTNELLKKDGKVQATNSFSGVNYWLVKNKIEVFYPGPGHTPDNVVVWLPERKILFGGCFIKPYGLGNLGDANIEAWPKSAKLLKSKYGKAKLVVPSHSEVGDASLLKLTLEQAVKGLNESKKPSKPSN
Sequence of NDM-1 (C7C422 whole entry, looked up, species assumed): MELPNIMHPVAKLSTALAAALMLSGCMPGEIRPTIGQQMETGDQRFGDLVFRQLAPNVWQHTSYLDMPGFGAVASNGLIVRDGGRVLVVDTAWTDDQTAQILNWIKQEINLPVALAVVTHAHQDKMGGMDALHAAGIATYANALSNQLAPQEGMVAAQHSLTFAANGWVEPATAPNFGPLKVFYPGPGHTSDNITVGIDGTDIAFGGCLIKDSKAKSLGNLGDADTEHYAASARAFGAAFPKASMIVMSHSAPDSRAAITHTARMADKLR

Turning to `NS(=O)(=O)c1c(S(=O)(=O)N[C@@H]2CCNC2)ccc(N2CCNC(CO)CC2)c1-c1nn[nH]n1` (stereo partly drawn) [Example 127, 4-(5-(hydroxymethyl)-1,4-diazepan-1-yl)-N1-((R)-pyrrolidin-3-yl)-3-(2H-tetrazol-5-yl)benzene-1,2-disulfonamide], in data set [1], the “MB9799 MITC95 P. aeruginosa uM Efflux Mutant” value was found to be 0.78 µM. The “CL5741 S. marcescens MITC95 IMP” value in data set [2] was 0.78 µM. In [3], the “IHMA599644 K. pneumoniae MITC95 VIM” value is 0.78 µM. The “CLB30016 E. coli MITC95 NDM” value in data set [4] is 0.39 µM. Besides, the IC50 at NDM-1 is 18.9 nM; at VIM-1 it was 1.25 nM; on IMP-1, 33.7 nM; on VIM-2, 24.6 nM. In data set [5], the “MB9798 MITC95 P. aeruginosa uM Efflux WT” value turned out to be 3.13 µM. The Efflux ratio in data set [5] amounted to 4.00.
Take `NCC1CCN(c2ccc(S(=O)(=O)C[C@H](O)CN)c(S(N)(=O)=O)c2-c2nn[nH]n2)CC1` [Example 128, (R)-6-((3-amino-2-hydroxypropyl)sulfonyl)-3-(4-(aminomethyl)piperidin-1-yl)-2-(2H-tetrazol-5-yl)benzenesulfonamide]: the “MB9799 MITC95 P. aeruginosa uM Efflux Mutant” value in data set [1] amounted to 0.39 µM. In addition, the “CL5741 S. marcescens MITC95 IMP” value in [2] worked out at 0.78 µM. Also, the “IHMA599644 K. pneumoniae MITC95 VIM” value in data set [3] worked out at 0.78 µM. Also, in data set [4], the “CLB30016 E. coli MITC95 NDM” value amounted to 0.39 µM. In addition, the IC50 against NDM-1 was determined as 8.71 nM; at VIM-1 it was 0.94 nM; on IMP-1, 3.65 nM; on VIM-2, 13.3 nM. Also, the “MB9798 MITC95 P. aeruginosa uM Efflux WT” value in [5] came out at 0.78 µM. Also, the Efflux ratio in data set [5] is 2.00.
For the compound `NC[C@@H](O)CNS(=O)(=O)c1ccc(N2CCN3CCOCC3C2)c(-c2nn[nH]n2)c1S(N)(=O)=O` (stereo partly drawn) [Example 129, N1-((R)-3-amino-2-hydroxypropyl)-4-(hexahydropyrazino [2,1-c][1,4]oxazin-8(1H)-yl)-3-(2H-tetrazol-5-yl)benzene-1,2-disulfonamide 2,2,2-trifluoroacetate], in [1], the “MB9799 MITC95 P. aeruginosa uM Efflux Mutant” value worked out at 3.13 µM. In data set [2], the “CL5741 S. marcescens MITC95 IMP” value is 3.13 µM. Moreover, in data set [3], the “IHMA599644 K. pneumoniae MITC95 VIM” value was determined as 12.50 µM. In addition, in data set [4], the “CLB30016 E. coli MITC95 NDM” value was 6.25 µM. Besides, the half-inhibitory concentration (IC50) against NDM-1 amounted to 2.7 nM; on VIM-1, 3.53 nM; at IMP-1, 4.72 nM; on VIM-2, 6.44 nM. In addition, the “MB9798 MITC95 P. aeruginosa uM Efflux WT” value in data set [5] is 6.25 µM. Also, in [5], the Efflux ratio was found to be 2.00.
As for `NC[C@@H](O)CNS(=O)(=O)c1ccc(N2CCC[C@@H](NCCO)C2)c(-c2nn[nH]n2)c1S(N)(=O)=O` [Example 130, N1-((R)-3-amino-2-hydroxypropyl)-4-((R)-3-((2-hydroxyethyl)amino)piperidin-1-yl)-3-(2H-tetrazol-5-yl)benzene-1,2-disulfonamide bis(2,2,2-trifluoroacetate)], the “MB9799 MITC95 P. aeruginosa uM Efflux Mutant” value in [1] amounted to 3.13 µM. Further, in data set [2], the “CL5741 S. marcescens MITC95 IMP” value is 3.13 µM. Also, the “IHMA599644 K. pneumoniae MITC95 VIM” value in data set [3] was determined as 1.56 µM. The “CLB30016 E. coli MITC95 NDM” value in data set [4] came out at 0.78 µM. The IC50 on NDM-1 was 32 nM; at VIM-1, 4.21 nM; at IMP-1, 128 nM; at VIM-2, 5.47 nM. In addition, the “MB9798 MITC95 P. aeruginosa uM Efflux WT” value in data set [5] was 12.50 µM. In data set [5], the Efflux ratio was 4.00.
With `NCCNS(=O)(=O)C1CCN(c2ccc(S(=O)(=O)NC[C@H](O)CN)c(S(N)(=O)=O)c2-c2nn[nH]n2)CC1` [Example 131, (R)-N1-(3-amino-2-hydroxypropyl)-4-(4-(N-(2-aminoethyl)sulfamoyl)piperidin-1-yl)-3-(2H-tetrazol-5-yl)benzene-1,2-disulfonamide], the “MB9799 MITC95 P. aeruginosa uM Efflux Mutant” value in data set [1] came out at 0.78 µM. Further, the “CL5741 S. marcescens MITC95 IMP” value in data set [2] turned out to be 0.78 µM. In addition, the “IHMA599644 K. pneumoniae MITC95 VIM” value in data set [3] is 1.56 µM. Further, in data set [4], the “CLB30016 E. coli MITC95 NDM” value stood at 0.39 µM. The IC50 against NDM-1 was 0.79 nM; at VIM-1, 0.11 nM; on IMP-1 it was 0.87 nM; at VIM-2 it was 1.05 nM. Moreover, in data set [5], the “MB9798 MITC95 P. aeruginosa uM Efflux WT” value turned out to be 0.78 µM. In [5], the Efflux ratio stood at 1.00.
As to `NCC(O)C1CCN(c2ccc(S(=O)(=O)NC[C@H](O)CN)c(S(N)(=O)=O)c2-c2nn[nH]n2)CC1` (stereo partly drawn) [Example 132, 4-(4-(2-amino-1-hydroxyethyl)piperidin-1-yl)-N1-((R)-3-amino-2-hydroxypropyl)-3-(2H-tetrazol-5-yl)benzene-1,2-disulfonamide], in [1], the “MB9799 MITC95 P. aeruginosa uM Efflux Mutant” value came to 0.78 µM. Moreover, in data set [2], the “CL5741 S. marcescens MITC95 IMP” value worked out at 0.78 µM. For the same compound, in data set [3], the “IHMA599644 K. pneumoniae MITC95 VIM” value was 1.56 µM. The “CLB30016 E. coli MITC95 NDM” value in data set [4] was 0.39 µM. Moreover, the IC50 was found to be 1.34 nM against NDM-1, 0.19 nM on VIM-1, 2.49 nM at IMP-1 and 4.28 nM on VIM-2. The “MB9798 MITC95 P. aeruginosa uM Efflux WT” value in [5] came to 0.78 µM. In addition, the Efflux ratio in [5] came out at 1.00.
Regarding `NC[C@@H](O)CNS(=O)(=O)c1ccc(N2CCC3(CCNC3)C2)c(-c2nn[nH]n2)c1S(N)(=O)=O` (stereo partly shown) [Example 133, di-trifluoroacetic acid], the “MB9799 MITC95 P. aeruginosa uM Efflux Mutant” value in data set [1] turned out to be 1.56 µM. Also, the “CL5741 S. marcescens MITC95 IMP” value in data set [2] amounted to 1.56 µM. The “IHMA599644 K. pneumoniae MITC95 VIM” value in [3] came to 0.78 µM. For the same compound, the “CLB30016 E. coli MITC95 NDM” value in data set [4] is 0.78 µM. For the same compound, the IC50 against NDM-1 was found to be 12.7 nM; at VIM-1, 2.07 nM; at IMP-1, 24 nM; on VIM-2, 57.9 nM. The “MB9798 MITC95 P. aeruginosa uM Efflux WT” value in data set [5] amounted to 3.13 µM. In addition, the Efflux ratio in data set [5] amounted to 2.00.
Regarding `Cl.Cl.NCC1CCN(c2ccc(S(=O)(=O)N[C@@H]3CCNC3)c(S(N)(=O)=O)c2-c2nn[nH]n2)CC1` [Example 135, (R)-4-(4-(aminomethyl)piperidin-1-yl)-N1-(pyrrolidin-3-yl)-3-(2H-tetrazol-5-yl)benzene-1,2-disulfonamide dihydrochloride], in data set [1], the “MB9799 MITC95 P. aeruginosa uM Efflux Mutant” value is 0.39 µM. Moreover, in data set [2], the “CL5741 S. marcescens MITC95 IMP” value turned out to be 0.78 µM. In addition, the “IHMA599644 K. pneumoniae MITC95 VIM” value in [3] was 1.17 µM. The “CLB30016 E. coli MITC95 NDM” value in data set [4] came to 0.59 µM. Besides, the half-inhibitory concentration (IC50) against NDM-1 stood at 1.13 nM; at VIM-1 it was 0.16 nM; at IMP-1, 3.43 nM; at VIM-2, 3 nM. Further, the “MB9798 MITC95 P. aeruginosa uM Efflux WT” value in data set [5] stood at 0.59 µM. In [5], the Efflux ratio is 1.50.
Regarding `CN(CCO)CCN(C)c1ccc(S(=O)(=O)NC[C@H](O)CN)c(S(N)(=O)=O)c1-c1nn[nH]n1` [Example 136, (R)—N1-(3-amino-2-hydroxypropyl)-4-((2-((2-hydroxyethyl)(methyl)amino)ethyl)(methyl)amino)-3-(2H-tetrazol-5-yl)benzene-1,2-disulfonamide], in data set [1], the “MB9799 MITC95 P. aeruginosa uM Efflux Mutant” value was found to be 12.50 µM. Also, the “CL5741 S. marcescens MITC95 IMP” value in data set [2] stood at 12.50 µM. The “IHMA599644 K. pneumoniae MITC95 VIM” value in data set [3] is 1.56 µM. Also, the “CLB30016 E. coli MITC95 NDM” value in data set [4] is 3.13 µM. The IC50 came to 200 nM against NDM-1, 14.2 nM on VIM-1, 200 nM at IMP-1 and 27.4 nM on VIM-2. The “MB9798 MITC95 P. aeruginosa uM Efflux WT” value in data set [5] turned out to be 50.00 µM. Further, in [5], the Efflux ratio amounted to 4.00.
Turning to `N.NC[C@@H](O)CNS(=O)(=O)c1ccc(N2CCN(CC(=O)O)CC2)c(-c2nnn[nH]2)c1S(N)(=O)=O` [Example 137, ammonium (R)-2-(4-(4-(N-(3-amino-2-hydroxypropyl)sulfamoyl)-3-sulfamoyl-2-(1H-tetrazol-5-yl)phenyl)piperazin-1-yl)acetate], the “MB9799 MITC95 P. aeruginosa uM Efflux Mutant” value in data set [1] was found to be 3.13 µM. In [2], the “CL5741 S. marcescens MITC95 IMP” value was found to be 1.56 µM. The “IHMA599644 K. pneumoniae MITC95 VIM” value in data set [3] was determined as 6.25 µM. Moreover, in data set [4], the “CLB30016 E. coli MITC95 NDM” value came out at 0.78 µM. The IC50 on NDM-1 is 3.5 nM; on VIM-1, 16.1 nM; at IMP-1 it was 4.97 nM; at VIM-2 it was 15.3 nM. The “MB9798 MITC95 P. aeruginosa uM Efflux WT” value in data set [5] came to 6.25 µM. Further, the Efflux ratio in data set [5] is 2.00.
